Reference: patent US11518764B2, “Substituted heteroaryls as inhibitors of the BCL6 BTB domain protein-protein interaction” (Ontario Institute for Cancer Research (OICR), priority 2018, dated 2022)

What was measured:
BCL6 BTB domain = BCL6 BTB domain (Homo sapiens (Human), UniProt P41182); test: Surface plasmon resonance (SPR) assay; format: binding; details: BCL6 BTB domain captured on SA chip, single cycle kinetics
[1] = test system: BCL6 reporter construct (3xBCL6-TK-Luc) in SuDHL4 cells; test: Cell-based luciferase assay; details: Homo sapiens, SU-DHL-4, 48 h, read-out: Luciferase-Assay EC50, uM), SuDHL4-3xBCL6-TK-Luc cells, two days, high dose 10 uM
Method in brief: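 SuDHL4 cells stably carrying a 3×BCL6-site TK-promoter firefly luciferase reporter, seeded at 15,000 cells/well, were dosed over a 10-point range (top 10 uM) and grown two days at 37 °C, 5% CO2. Luminescence then read after adding neolite reagent at room temperature.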

Karpas422 cells = test: Tumor cell growth inhibition assay; format: cell-based; details: Homo sapiens, KARPAS-422, 144 h, read-out: Tumor Growth Inhibition in Karpas-422 (IC50, uM), Karpas422 cells, six days, ATPlite
Method in brief: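 Growth inhibition was measured by ATPlite luminescence after six days of culture at 37° C. in 5% CO2. Karpas422 cells were seeded at 2,000 per well in Alpha-MEM plus 10% FBS. Compounds were given as a 10-point concentration series with a highest dose of 5 uM.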

Row | Compound | Kd (BCL6 BTB domain) [nM] | EC50 [1] [µM] | IC50 (Karpas422 cells) [µM]
1 | Cc1nc2c(c(-c3cc(Cl)c(O)c(C(N)=O)c3)cn2CC(=O)Nc2cc(N3CCN(C)C[C@@H]3C)nc(F)c2Cl)c(=O)n1C [Compound I-373] | 5.96 | 0.0803 | 0.105
2 | CO[C@@H]1CN(c2cc(NC(=O)Cn3cc(-c4cc(Cl)c(O)c(C(N)=O)c4)c4c(=O)n(C)c(C)nc43)c(Cl)c(F)n2)C[C@@H]1F [Compound I-399] | 30.7 | 0.268 | 0.535
3 | CC1CN(C)CC(C)N1c1cc(NC(=O)Cn2cc(-c3cc(Cl)c(O)c(C(N)=O)c3)c3c(=O)n(C)cnc32)c(Cl)cn1 (stereo not drawn) [Compound I-340] | 11.6 | 0.0724 | 0.0759
4 | Cc1nc2c(c(-c3cc(C(N)=O)c(O)c(F)c3F)cn2CC(=O)Nc2cc(N3CCN(C(C)C)C[C@@H]3C)ncc2Cl)c(=O)n1C [Compound I-380] | 56 | 0.59 | 0.478
5 | CN1C(C)(C)CN(c2cc(NC(=O)Cn3cc(-c4cc(F)c(O)c(C(N)=O)c4)c4c(=O)n(C)cnc43)c(Cl)cn2)CC1(C)C [Compound I-221] | 14.1 | 0.14 | 0.11
6 | CN1CCCN(c2cc(NC(=O)Cn3cc(-c4cc(F)c(O)c(C(N)=O)c4)c4c(=O)n(C)cnc43)c(Cl)cn2)CC1 [Compound I-289] | 16 | 1.18 | 0.652
7 | C[C@H]1CN(CC(O)CCO)CCN1c1cc(NC(=O)Cn2cc(-c3cc(C(N)=O)c(O)c(F)c3F)c3c(=O)n(C)cnc32)c(Cl)c(F)n1 (stereo partly drawn) [Compound I-459, 5-(7-(2-((3-chloro-6-((2S)-4-(2,4-dihydroxybutyl)-2-methylpiperazin-1-yl)-2-fluoropyridin-4-yl)amino)-2-oxoethyl)-3-methyl-4-oxo-4,7-dihydro-3H-pyrrolo[2,3-d]pyrimidin-5-yl)-3,4-difluoro-2-hydroxybenzamide] | 6.55 | 0.945 | 1.06
8 | Cn1cnc2c(c(-c3cc(Cl)c(O)c(C(N)=O)c3)cn2CC(=O)Nc2cc3cnn(C)c3cc2Cl)c1=O [Compound I-181] | 617 | 33 | 10
9 | COc1ncc(Cl)c(NC(=O)Cn2cc(-c3cc(Cl)c(O)c(C(N)=O)c3)c3c(=O)n(C)c(C)nc32)c1F [Compound I-382] | 342 | 3.1 | 10
10 | C[C@H]1CN(CCO)CCN1c1cc(NC(=O)Cn2cc(-c3cc(C(N)=O)c(O)c(F)c3F)c3c(=O)n(C)cnc32)c(Cl)cn1 [Compound I-452, (S)-5-(7-(2-((5-chloro-2-(4-(2-hydroxyethyl)-2-methylpiperazin-1-yl)pyridin-4-yl)amino)-2-oxoethyl)-3-methyl-4-oxo-4,7-dihydro-3H-pyrrolo[2,3-d]pyrimidin-5-yl)-3,4-difluoro-2-hydroxybenzamide] | 13.6 | 2.6 | 1.52
11 | Cn1cnc2c(c(-c3cc(Cl)c(O)c(C(N)=O)c3)cn2CC(=O)Nc2cc(N3CCOCC3)c(F)cc2Cl)c1=O [Compound I-195] | 196 | 1.5 | 1.08
12 | CN1CCOC2(CCN(c3cc(NC(=O)Cn4cc(-c5cc(Cl)c(O)c(C(N)=O)c5)c5c(=O)n(C)cnc54)c(Cl)cn3)C2)C1 (stereo not drawn) [Compound I-132] | 10 | 0.192 | 0.067
13 | C[C@@H]1CN(c2cc(NC(=O)Cn3cc(-c4cc(F)c(O)c(C(N)=O)c4)c4c(=O)n(C)cnc43)c(Cl)cn2)C[C@H](C)N1 [Compound I-218] | 16.4 | 0.975 | 0.563
14 | Cc1nc2c(c(-c3cc(C(N)=O)c(O)c(F)c3F)cn2CC(=O)Nc2cc(N3CCN(C)C[C@@H]3C(C)C)ncc2Cl)c(=O)n1C [Compound I-378] | 118 | 0.944 | 1.22
15 | CN1C2CCC1CN(c1cc(NC(=O)Cn3cc(-c4cc(C(N)=O)c(O)c(F)c4F)c4c(=O)n(C)cnc43)c(Cl)cn1)C2 [Compound I-285] | 102 | 1.6 | 1.6
16 | CN(C)c1cc(NC(=O)Cn2cc(-c3cc(Cl)c(O)c(C(N)=O)c3)c3c(=O)n(C)cnc32)c(Cl)c(F)n1 [Compound I-421] | 14.7 | 0.154 | 0.154
17 | C[C@H]1CN(CC2CC2)CCN1c1cc(NC(=O)Cn2cc(-c3cc(Cl)c(O)c(C(N)=O)c3)c3c(=O)n(C)c(C(F)(F)F)nc32)c(Cl)cn1 [Compound I-343] | 180 | 0.641 | 0.383
18 | C[C@H]1CN(CC2CC2)CCN1c1cc(NC(=O)Cn2cc(-c3cc(F)c(O)c(C(N)=O)c3)c3c(=O)n(C)cnc32)c(Cl)cn1 [Compound I-303] | 6.36 | 0.0493 | 0.0323
19 | COc1c(O)c(C(N)=O)cc(-c2cn(CC(=O)Nc3cc(N4C[C@@H](C)N[C@@H](C)C4)ncc3Cl)c3ncn(C)c(=O)c23)c1F [Compound I-193] | 229 | 5.39 | 2.66
20 | CO[C@H]1CC(c2cc(NC(=O)Cn3cc(-c4cc(Cl)c(O)c(C(N)=O)c4)c4c(=O)n(C)cnc43)c(Cl)c(F)n2)C[C@H]1F (stereo partly drawn) [Compound I-439] | 32.9 | 0.267 | 0.28
21 | CO[C@@H]1CCN(c2cc(NC(=O)Cn3cc(-c4cc(C(N)=O)c(O)c(F)c4F)c4c(=O)n(C)cnc43)c(Cl)cn2)C1 [Compound I-354] | 54.8 | 1.02 | 1.27
22 | C[C@@H]1CN(CCN(C)c2cc(NC(=O)Cn3cc(-c4cc(Cl)c(O)c(C(N)=O)c4)c4c(=O)n(C)cnc43)c(Cl)cn2)C[C@H](C)O1 [Compound I-73] | 19 | 0.233 | 0.165
23 | Cn1cnc2c(c(-c3cc(Cl)c(O)c(C(N)=O)c3)cn2CC(=O)Nc2cc(N3CCOCC3(C)C)ncc2Cl)c1=O [Compound I-212] | 28.4 | 0.494 | 0.457
24 | Cn1cnc2c(c(-c3cc(Cl)c(O)c(C(N)=O)c3)cn2CC(=O)Nc2cc(N3CCC4(CCOCC4)CC3)ncc2Cl)c1=O [Compound I-77] | 27 | 0.279 | 0.115
25 | C[C@H]1CN(CC2CC2)CCN1c1cc(NC(=O)Cn2cc(-c3cc(Cl)c(O)c(C(N)=O)c3)c3c(=O)n(C)cnc32)c(Cl)cn1 [Compound I-301] | 19.6 | 0.21 | 0.252
26 | CN1CCC2(C1)CN(c1cc(NC(=O)Cn3cc(-c4cc(F)c(O)c(C(N)=O)c4)c4c(=O)n(C)cnc43)c(Cl)cn1)C2 [Compound I-486] | 30 | 6.95 | 10
27 | Cn1cnc2c(c(-c3cc(Cl)c(O)c(C(N)=O)c3)cn2CC(=O)Nc2cc(N3CCC4(CCOC4)C3)ncc2Cl)c1=O (stereo not drawn) [Compound I-76] | 12 | 0.155 | 0.112
28 | Cn1cnc2c(c(-c3cc(Cl)c(O)c(C(N)=O)c3)cn2CC(=O)Nc2ccc(F)cc2Cl)c1=O [Compound I-383] | 460 | 2.44 | 1.05
29 | Cc1cc(NC(=O)Cn2cc(-c3cc(C(N)=O)c(O)c(F)c3F)c3c(=O)n(C)cnc32)c(Cl)cn1 [Compound I-333] | 145 | 2.42 | 4.21
30 | CCN1CCN(c2cc(NC(=O)Cn3cc(-c4cc(C(N)=O)c(O)c(F)c4F)c4c(=O)n(C)c(C)nc43)c(Cl)cn2)[C@@H](C)C1 [Compound I-435] | 48.9 | 0.847 | 0.415
